From patent US10793557B2, “Sting agonist compounds” (Merck Sharp & Dohme Corp., priority 2018, dated 2020)

Experiments:
[1] = system: secretion of interferon-beta from THP1 cells; experiment: IFN-β secretion in THP1 cell culture (5 h); type: cell-based; settings: Homo sapiens, THP-1, 5 h, 30 uM cGAMP = 100%; for activation at 30 µM: compound at 30 μM, read-out: % Effect at 30 μM relative to 2′3′-cGAMP
How it was run: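 Thawed THP1 cells (0.8×10^6/mL, RPMI with 0.5% FBS) exposed to compounds 1.5–30000 nM (0.3% DMSO) for 5 h at 37 °C. Supernatant IFN-β quantified by AlphaLISA. Percent effect normalised to 30 uM cGAMP and DMSO controls; EC50 from 4-parameter fit.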

[2] = target: T1, full-length WT STING (Homo sapiens, UniProt Q86WV6, H232R); experiment: 3H-cGAMP filtration binding assay (WT STING); settings: competition with tritiated cGAMP, WT STING membrane
T1 construct: AviTag (after gg linker) (C); HRV3C cleavage site (after gs linker) (C); HIS8 (C); made in house; host or cells: Trichoplusia ni (Hi-Five) insect cells infected with baculovirus (virus generated and amplified in Sf21 cells); used as a washed membrane preparation
How it was run: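 Competitive filtration binding of [3H]cGAMP (16 nM working stock) to T. ni membranes overexpressing full-length WT human STING, 60 min at RT in PBS. Bound radioactivity counted after GF/B filtration; 10-point 1:3 titration, EC50 from 4-parameter fit after control normalisation.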

[3] = target: T2, full-length HAQ STING (Homo sapiens, UniProt Q86WV6, G230A/H232R/R293Q/R71H); experiment: 3H-cGAMP filtration binding assay (HAQ STING); settings: competition with tritiated cGAMP, HAQ STING membrane
T2 construct: AviTag (after GG linker) (C); HRV3C cleavage site (after GS linker) (C); HIS8 (C); made in house; host or cells: Trichoplusia ni (Hi-Five) insect cells infected with baculovirus (virus generated and amplified in Sf21 cells); used as a washed membrane preparation
How it was run: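 Hi-Five (T. ni) membranes overexpressing the STING variant (2.2 ug/ml working) preincubated with compound 60 min at RT in PBS, then [3H]cGAMP (8 nM working stock) added for 60 min at RT. Bound radioactivity captured on GF/B filters and counted by scintillation; EC50 from 4-parameter fit of control-normalized activity.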

T2 sequence (Q86WV6 with tags, fused parts or gaps R71H/G230A/H232R/R293Q): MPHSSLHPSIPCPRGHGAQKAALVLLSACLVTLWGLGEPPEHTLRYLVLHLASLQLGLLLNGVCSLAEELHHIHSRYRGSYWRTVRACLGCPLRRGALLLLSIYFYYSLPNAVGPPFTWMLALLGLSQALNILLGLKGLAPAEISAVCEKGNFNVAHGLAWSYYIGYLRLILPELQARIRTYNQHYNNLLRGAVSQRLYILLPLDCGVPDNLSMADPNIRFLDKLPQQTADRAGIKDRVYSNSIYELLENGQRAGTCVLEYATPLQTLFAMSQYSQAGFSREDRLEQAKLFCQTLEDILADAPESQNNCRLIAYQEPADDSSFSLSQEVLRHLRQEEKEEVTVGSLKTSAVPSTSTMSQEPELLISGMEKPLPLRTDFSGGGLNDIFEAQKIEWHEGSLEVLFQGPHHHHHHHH
T1 sequence (Q86WV6 with tags, fused parts or gaps H232R): as the sequence (Q86WV6 with tags, fused parts or gaps R71H/G230A/H232R/R293Q) above, with H71R, A230G, Q293R counted along it

SMILES	EC50 [2] [nM]	EC50 [3] [nM]	activation at 3 µM ([1]; compound at 3 uM, read-out: % Effect relative to 2′3′-cGAMP (@ 3 uM)) [%]	activation at 30 µM [1] [%]
COc1cc2sc(C(=O)C[C@H](C)C(=O)O)cc2c(F)c1OCCCCCOc1c(OC)cc2sc(C(=O)C[C@H](C)C(=O)O)cc2c1F [Example 120, (2S,2′S)-4,4′-(5,5′-(pentane-1,5-diylbis(oxy))bis(4-fluoro-6-methoxybenzo[b]thiophene-5,2-diyl))bis(2-methyl-4-oxobutanoic acid)]	698	38	45	
COc1cc2sc(C(=O)CCC(=O)O)cc2c(F)c1OCCCCCOc1c(OC)cc2sc(C(=O)C[C@H](C)C(=O)O)cc2c1F [Example 118]	5000	60		117
COc1cc2sc(C(=O)C[C@H](C)C(=O)O)cc2cc1OCCOc1c(OC)cc2sc(C(=O)C[C@H](C)C(=O)O)cc2c1F [Example 67, (S)-4-(5-(2-((2-((S)-3-carboxybutanoyl)-4-fluoro-6-methoxybenzo[b]thiophen-5-yl)oxy)ethoxy)-6-methoxybenzo[b]thiophen-2-yl)-2-methyl-4-oxobutanoic acid]	45	40		92
COc1cc2sc(C(=O)C[C@H](C)C(=O)O)cc2cc1OCCOc1ccc2cc(C(=O)CCC(=O)O)sc2c1 [Example 56, (S)-4-(5-(2-((2-(3-carboxypropanoyl)benzo[b]thiophen-6-yl)oxy)ethoxy)-6-methoxybenzo[b]thiophen-2-yl)-2-methyl-4-oxobutanoic acid]	3130	1070		30
COc1cc2sc(C(=O)CCC(=O)O)cc2cc1CCCNc1cc2cc(C(=O)C[C@H](C)C(=O)O)sc2cc1OC [Example 177, (S)-4-(5-((3-(2-(3-carboxypropanoyl)-6-methoxybenzo[b]thiophen-5-yl)propyl)amino)-6-methoxybenzo[b]thiophen-2-yl)-2-methyl-4-oxobutanoic acid]	720	68		80
COc1cc2sc(C(=O)C[C@H](C)C(=O)O)cc2c(F)c1CCCOc1c(OC)cc2sc(C(=O)[C@@H]3CC3C(=O)O)cc2c1F (stereo partly drawn) [Example 106, trans-2-(5-(3-(2-((S)-3-carboxybutanoyl)-4-fluoro-6-methoxybenzo[b]thiophen-5-yl)propoxy)-4-fluoro-6-methoxybenzo[b]thiophene-2-carbonyl)cyclopropane carboxylic acid]	251	10		74

More lines, in order of falling EC50 [2], values ahead:

EC50 [2] [nM]	EC50 [3] [nM]	SMILES	activation at 3 µM ([1]; compound at 3 uM, read-out: % Effect relative to 2′3′-cGAMP (@ 3 uM)) [%]	activation at 30 µM [1] [%]
713	146	COc1cc2cc(C(=O)C[C@H](C)C(=O)O)sc2cc1OCCOc1ccc2sc(C(=O)CCC(=O)O)cc2c1 [Example 53, (S)-4-(6-(2-((2-(3-carboxypropanoyl)benzo[b]thiophen-5-yl)oxy)ethoxy)-5-methoxybenzo[b]thiophen-2-yl)-2-methyl-4-oxobutanoic acid]		23
270	16	COc1cc2cc(C(=O)CCC(=O)O)sc2cc1OCCCOc1cc2sc(C(=O)CCC(=O)O)cc2cc1OC [Example 127, 4,4′-(6,6′-(propane-1,3-diylbis(oxy))bis(5-methoxybenzo[b]thiophene-6,2-diyl))bis(4-oxobutanoic acid)]		120
2	1	COc1cc2sc(C(=O)CCC(=O)O)cc2nc1OCCCOc1c(OC)cc2sc(C(=O)CCC(=O)O)cc2c1F [Example 82, 4-(5-(3-((2-(3-carboxypropanoyl)-4-fluoro-6-methoxybenzo[b]thiophen-5-yl)oxy)propoxy)-6-methoxythieno[3,2-b]pyridin-2-yl)-4-oxobutanoic acid]		158
1	1	COc1cc2sc(C(=O)C[C@H](C)C(=O)O)cc2c(F)c1OCCCOc1c(OC)cc2sc(C(=O)C[C@H](C)C(=O)O)cc2c1Cl [Example 122, (S)-4-(5-(3-((2-((S)-3-carboxybutanoyl)-4-chloro-6-methoxybenzo[b]thiophen-5-yl)oxy)propoxy)-4-fluoro-6-methoxybenzo[b]thiophen-2-yl)-2-methyl-4-oxobutanoic acid]		79
